Reference: BindingDB's records for doi:10.1021/jm960626t (Dupont Pharmaceuticals, 1997)
Structures can show the parent of a compound that is named as a salt.

target: Integrin alpha-IIb/beta-3 (Homo sapiens, UniProt P08514+P05106); assay: Inhibition of human platelet aggregation induced by ADP
Sequence (P05106 27-788 limits assumed): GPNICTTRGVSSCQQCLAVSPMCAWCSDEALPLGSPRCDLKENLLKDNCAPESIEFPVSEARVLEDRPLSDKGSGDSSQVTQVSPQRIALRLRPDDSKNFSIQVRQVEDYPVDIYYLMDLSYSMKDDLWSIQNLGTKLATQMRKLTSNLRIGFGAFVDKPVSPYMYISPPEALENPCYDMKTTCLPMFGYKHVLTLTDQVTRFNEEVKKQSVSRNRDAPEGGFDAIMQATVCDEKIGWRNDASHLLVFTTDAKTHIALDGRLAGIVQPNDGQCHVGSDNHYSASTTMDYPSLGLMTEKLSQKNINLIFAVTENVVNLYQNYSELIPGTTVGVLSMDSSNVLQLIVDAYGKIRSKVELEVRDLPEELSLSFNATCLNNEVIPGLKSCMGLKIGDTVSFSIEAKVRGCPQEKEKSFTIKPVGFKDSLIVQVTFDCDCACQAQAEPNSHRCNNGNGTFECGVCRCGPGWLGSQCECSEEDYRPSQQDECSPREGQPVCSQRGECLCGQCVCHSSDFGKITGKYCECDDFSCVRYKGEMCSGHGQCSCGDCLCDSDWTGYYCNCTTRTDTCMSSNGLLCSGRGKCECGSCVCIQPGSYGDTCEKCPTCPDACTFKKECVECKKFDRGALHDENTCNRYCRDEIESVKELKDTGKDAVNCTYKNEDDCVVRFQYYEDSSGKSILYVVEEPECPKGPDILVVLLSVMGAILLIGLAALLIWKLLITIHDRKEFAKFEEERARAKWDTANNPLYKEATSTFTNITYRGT
Sequence (P08514 32-887 limits assumed): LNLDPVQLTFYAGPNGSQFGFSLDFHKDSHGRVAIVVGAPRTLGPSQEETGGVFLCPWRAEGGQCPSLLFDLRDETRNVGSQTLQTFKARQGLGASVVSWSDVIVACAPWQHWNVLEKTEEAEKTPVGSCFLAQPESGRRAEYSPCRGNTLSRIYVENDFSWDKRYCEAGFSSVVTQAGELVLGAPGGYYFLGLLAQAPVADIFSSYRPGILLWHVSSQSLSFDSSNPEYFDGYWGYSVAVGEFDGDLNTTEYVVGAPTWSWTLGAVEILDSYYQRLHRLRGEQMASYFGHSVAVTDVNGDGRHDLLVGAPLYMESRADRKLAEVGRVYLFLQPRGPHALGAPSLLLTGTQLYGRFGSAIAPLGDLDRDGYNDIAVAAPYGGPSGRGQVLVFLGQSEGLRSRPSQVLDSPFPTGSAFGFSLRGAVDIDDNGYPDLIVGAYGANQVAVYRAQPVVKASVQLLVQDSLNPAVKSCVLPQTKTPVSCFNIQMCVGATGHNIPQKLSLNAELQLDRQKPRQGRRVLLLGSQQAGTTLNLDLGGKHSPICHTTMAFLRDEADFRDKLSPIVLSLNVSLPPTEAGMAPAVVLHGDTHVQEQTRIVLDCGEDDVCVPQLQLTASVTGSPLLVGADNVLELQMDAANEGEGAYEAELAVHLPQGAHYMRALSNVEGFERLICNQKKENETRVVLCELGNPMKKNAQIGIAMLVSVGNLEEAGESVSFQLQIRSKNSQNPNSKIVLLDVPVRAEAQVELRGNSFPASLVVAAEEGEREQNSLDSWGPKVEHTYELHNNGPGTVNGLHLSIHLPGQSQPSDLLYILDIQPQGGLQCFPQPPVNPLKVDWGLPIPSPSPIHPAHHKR
Sequence (P08514 891-1039 limits assumed): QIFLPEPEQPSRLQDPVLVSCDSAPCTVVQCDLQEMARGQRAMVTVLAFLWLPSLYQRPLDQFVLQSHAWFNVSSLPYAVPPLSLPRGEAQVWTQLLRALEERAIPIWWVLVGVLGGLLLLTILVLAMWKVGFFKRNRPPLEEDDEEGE

Point of comparison: `N=C(N)c1ccc(C2=NO[C@H](CC(=O)NCCC(=O)O)C2)cc1` [3-{2-[(S)-3-(4-Carbamimidoyl-phenyl)-4,5-dihydro-isoxazol-5-yl]-acetylamino}-propionic acid; TFA], IC50 0.06 µM. Against it:
- O=C(O)CCNC(=O)CC1CC(CCC2CCNCC2)=NO1 (configuration not stated) [3-{2-[3-(2-Piperidin-4-yl-ethyl)-4,5-dihydro-isoxazol-5-yl]-acetylamino}-propionic acid] — 10-fold higher, 0.63 µM
- O=C(O)CCNC(=O)CC1CC(CC2CCNCC2)=NO1 (configuration not stated) [3-[2-(3-Piperidin-4-ylmethyl-4,5-dihydro-isoxazol-5-yl)-acetylamino]-propionic acid] — higher, > 100 µM
- O=C(O)CCC1CC(c2ccc(OCC3CCNCC3)cc2)=NO1 (configuration not stated) [3-{3-[4-(Piperidin-4-ylmethoxy)-phenyl]-4,5-dihydro-isoxazol-5-yl}-propionic acid] — 300-fold higher, 18 µM
- O=C(NC(C(=O)O)C1CC(c2ccc(OCCC3CCNCC3)cc2)=NO1)OCc1ccccc1 (configuration not stated) [Benzyloxycarbonylamino-{3-[4-(2-piperidin-4-yl-ethoxy)-phenyl]-4,5-dihydro-isoxazol-5-yl}-acetic acid] — 380-fold higher, 23 µM
- N=C(N)c1ccc(C2=NO[C@@H](CC(=O)NCCC(=O)O)C2)cc1 — 14-fold higher, 0.86 µM
- O=C(O)CC1CC(c2ccc(OCCC3CCNCC3)cc2)=NO1 (configuration not stated) [{3-[4-(2-Piperidin-4-yl-ethoxy)-phenyl]-4,5-dihydro-isoxazol-5-yl}-acetic acid] — 140-fold higher, 8.3 µM
